Source: patent US9365508B2, “Aroyl thiourea derivatives” (University Court of the University of St Andrews, priority 2009, dated 2016)
Counter-ions that a name gives are not always drawn.

Tests used:
[1] = target: SIRT2 (Homo sapiens (Human), UniProt Q8IXJ6); experiment: SIRT2 inhibition assay (Fluor de Lys fluorescence-based assay kit); type: biochemical; conditions: human recombinant enzyme; for inhibition at 60 µM: read-out: SirT2 (% inhib at 60 μM)
Procedure: (§1) SIRT1 and SIRT2 Inhibition Assays
(§2) All compounds were tested for inhibition of SIRT1 and SIRT2 using human recombinant enzymes available in the Fluor de Lys fluorescence-based assay kit (BIOMOL, AK555, AK556). All other required reagents were provided in the kit which was stored at −78° C. Before use, small aliquots of each enzyme (2-3 μL) were prepared, snap frozen in liquid nitrogen and stored at −78° C. Fresh dilutions of compounds were prepared in DMSO and further diluted in assay buffer. NAD^+ (12.5 […] at 4 mM) and Fluor de Lys SIRT1 or SIRT2 (12.5 μL at 100 μM) in assay buffer were added to a white 96 well plate, followed by compound (10 μL) and lastly enzyme (15 μL, 0.07 U/μL or SIRT1 and 0.3 U/μL for SIRT2). After incubation for 1 h at 37° C. a developer solution (50 μL) was added to each reaction. The developer solution contained 38 μL buffer, 10 μL developer and 2 μL nicotinamide (50 mM) per reaction. The plate was then incubated for 45 min at rt and then read using a Spectra Max Gemini fluorimeter with an excitation wavelength of 355 nm and an emission wavelength of 460 nm. SigmaPlot software was used to generate fit curves for raw plots and the equation for each curve was used to calculate IC50 data.

[2] = target: SIRT1 (Homo sapiens (Human), UniProt Q96EB6); experiment: SIRT1 inhibition assay (Fluor de Lys fluorescence-based assay kit); type: biochemical; conditions: human recombinant enzyme; for inhibition at 60 µM: read-out: SirT1 (% inhib at 60 μM)
Procedure: as §1, §2

Sequence of SIRT2 (Q8IXJ6 whole entry): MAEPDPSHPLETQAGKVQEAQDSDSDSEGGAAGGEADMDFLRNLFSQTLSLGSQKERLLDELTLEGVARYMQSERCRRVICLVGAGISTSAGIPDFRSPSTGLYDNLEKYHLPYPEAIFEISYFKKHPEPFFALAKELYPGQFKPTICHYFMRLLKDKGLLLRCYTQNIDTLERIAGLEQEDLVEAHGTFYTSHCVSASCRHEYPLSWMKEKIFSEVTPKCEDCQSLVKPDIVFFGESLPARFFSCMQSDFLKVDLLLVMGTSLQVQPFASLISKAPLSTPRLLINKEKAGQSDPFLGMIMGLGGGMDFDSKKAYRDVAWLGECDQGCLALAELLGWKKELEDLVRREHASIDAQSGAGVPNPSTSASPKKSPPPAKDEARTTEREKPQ
Sequence of SIRT1 (Q96EB6 whole entry): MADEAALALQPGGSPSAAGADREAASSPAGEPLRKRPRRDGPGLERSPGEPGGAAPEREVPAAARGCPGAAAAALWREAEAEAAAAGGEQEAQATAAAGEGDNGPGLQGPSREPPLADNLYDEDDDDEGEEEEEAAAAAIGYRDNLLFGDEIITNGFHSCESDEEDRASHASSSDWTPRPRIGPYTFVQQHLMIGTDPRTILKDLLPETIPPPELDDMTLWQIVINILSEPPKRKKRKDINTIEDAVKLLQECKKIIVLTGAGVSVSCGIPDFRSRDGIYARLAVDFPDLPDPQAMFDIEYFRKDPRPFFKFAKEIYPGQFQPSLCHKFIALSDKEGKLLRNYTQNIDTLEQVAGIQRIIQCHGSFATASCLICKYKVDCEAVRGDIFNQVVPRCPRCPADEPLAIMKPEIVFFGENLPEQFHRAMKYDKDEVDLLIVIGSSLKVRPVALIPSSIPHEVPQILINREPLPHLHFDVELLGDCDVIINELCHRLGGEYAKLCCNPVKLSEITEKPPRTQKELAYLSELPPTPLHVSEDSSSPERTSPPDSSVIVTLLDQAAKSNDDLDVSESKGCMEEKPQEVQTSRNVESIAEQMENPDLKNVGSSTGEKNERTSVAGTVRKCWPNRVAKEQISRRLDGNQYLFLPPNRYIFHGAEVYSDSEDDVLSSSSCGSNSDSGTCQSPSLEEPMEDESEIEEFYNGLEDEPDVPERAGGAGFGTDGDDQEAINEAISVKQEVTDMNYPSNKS

| SMILES | inhibition at 60 µM ([1]; 60 μM compound) [%] | IC50 [1] [µM] | inhibition at 60 µM ([2]; 60 μM compound) [%] | IC50 [2] [µM] | SirT2 (% inhib at 60 μM) ([1]; 60 μM compound) [%] | SirT1 (% inhib at 60 μM) ([2]; 60 μM compound) [%] |
| --- | --- | --- | --- | --- | --- | --- |
| CN(C)CCCCC(=O)Nc1ccc(NC(=S)NC(=O)c2ccc(C(C)(C)C)c(Br)c2)cc1 [Compound 361a, 5-Dimethylamino-pentanoic acid {4-[3-(3-bromo-4-tert-butyl-benzoyl)-thioureido]-phenyl}-amide hydrochloride] | 91.1 | 4.6 ± 0.6 | 93.5 | 18.3 ± 0.3 |  |  |
| COc1ccc(C(=O)NC(=S)Nc2ccc(NC(=O)CCCCN(C)C)cc2)cc1Cl [Compound 350a, 5-Dimethylamino-pentanoic acid {4-[3-(3-chloro-4-methoxy-benzoyl)-thioureido]-phenyl}-amide hydrochloride] | 37.8 |  | 9 |  |  |  |
| Cc1ccccc1C(=O)NC(=S)Nc1ccc(NC(=O)CCCCN(C)C)cc1 [Compound A1, 5-Dimethylamino-pentanoic acid {4-[3-(2-methyl-benzoyl)-thioureido]-phenyl}-amide hydrochloride] | 48.5 | 80.7 ± 14.4 | 10 | > 90 |  |  |
| CN(C)CCCCC(=O)Nc1ccc(NC(=S)NC(=O)c2ccccc2Cl)cc1 [Compound A2, 5-Dimethylamino-pentanoic acid {4-[3-(2-chloro-benzoyl)-thioureido]-phenyl}-amide hydrochloride] | 54.3 |  | 29.3 |  |  |  |
| CCc1ccc(C(=O)NC(=S)Nc2ccc(NC(=O)CCCCN(C)C)cc2)cc1 [Compound 345d, 5-Dimethylamino-pentanoic acid {4-[3-(4-ethyl-benzoyl)-thioureido]-phenyl}-amide hydrochloride] | 57.1 |  | 9.1 |  |  |  |
| COc1ccccc1C(=O)NC(=S)Nc1ccc(NC(=O)CCCCN(C)C)cc1 [Compound A3, 5-Dimethylamino-pentanoic acid {4-[3-(2-methoxy-benzoyl)-thioureido]-phenyl}-amide hydrochloride] | 66.8 |  | 48.7 |  |  |  |
| CN(C)CCCCC(=O)Nc1ccc(NC(=S)NC(=O)c2cccc(Br)c2)cc1 [Compound A6, 5-Dimethylamino-pentanoic acid {4-[3-(3-bromo-benzoyl)-thioureido]-phenyl}-amide hydrochloride] | 81 | 21.2 ± 7.2 | 70.5 | 39.9 ± 8.1 |  |  |
| CCOc1c(Cl)cc(C(=O)NC(=S)Nc2ccc(NC(=O)CCCCN(C)C)cc2)cc1Cl [Compound 391a, 5-Dimethylamino-pentanoic acid {4-[3-(3,5-dichloro-4-ethoxy-benzoyl)-thioureido]-phenyl}-amide hydrochloride] | 87.9 | 3 ± 0.1 | 81.5 | 29.3 ± 3.6 |  |  |
| Cc1cccc(C(=O)NC(=S)Nc2ccc(NC(=O)CCCCN(C)C)cc2)c1 [Compound B1, 5-Dimethylamino-pentanoic acid {4-[3-(3-methyl-benzoyl)-thioureido]-phenyl}-amide] | 20.9 |  | 5 |  |  |  |
| CN(C)CCCCC(=O)Nc1ccc(NC(=S)NC(=O)c2cc(Cl)cc(Cl)c2)cc1 [Compound 360a, 5-Dimethylamino-pentanoic acid {4-[3-(3,5-dichloro-benzoyl)-thioureido]-phenyl}-amide hydrochloride] | 49.9 |  | 23.3 |  |  |  |
| COc1ccc(C(=O)NC(=S)Nc2ccc(NC(=O)CCCCN(C)C)cc2)cc1 [318a A3, 5-Dimethylamino-pentanoic acid {4-[3-(4-methoxy-benzoyl)-thioureido]-phenyl}-amide hydrochloride] | 51 |  | 48 |  |  |  |
| CCCCOc1c(Cl)cc(C(=O)NC(=S)Nc2ccc(NC(=O)CCCCN(C)C)cc2)cc1Cl [Compound 392a, 5-Dimethylamino-pentanoic acid {4-[3-(4-butoxy-3,5-dichloro-benzoyl)-thioureido]-phenyl}-amide hydrochloride] | 96.3 | 0.4 ± 0.4 | 90.4 | 22.5 ± 1.3 |  |  |
| CN(C)CCCCC(=O)Nc1ccc(NC(=S)NC(=O)c2ccc(Cl)cc2)cc1 [318a A1, 5-Dimethylamino-pentanoic acid {4-[3-(4-chloro-benzoyl)-thioureido]-phenyl}-amide hydrochloride] | 61 |  | 53 |  |  |  |
| CN(C)CCCCC(=O)Nc1ccc(NC(=S)NC(=O)c2ccc(N(C)C)cc2)cc1 [Compound 332a, 5-Dimethylamino-pentanoic acid {4-[3-(4-dimethylamino-benzoyl)-thioureido]-phenyl}-amide hydrochloride] | 61.5 |  | 55.7 |  |  |  |
| CCCCc1ccc(C(=O)NC(=S)Nc2ccc(NC(=O)CCCCN(C)C)cc2)cc1 [Compound 345b, 5-Dimethylamino-pentanoic acid {4-[3-(4-butyl-benzoyl)-thioureido]-phenyl}-amide hydrochloride] | 90 |  | 56.3 |  |  |  |
| CN(C)CCCCC(=O)Nc1ccc(NC(=S)NC(=O)c2ccc(Cl)c(Cl)c2)cc1 [Compound 311d, 5-Dimethylamino-pentanoic acid {4-[3-(3,4-dichloro-benzoyl)-thioureido]-phenyl}-amide hydrochloride] | 68 | 31.9 ± 6.4 | 8 | 70.9 ± 4.2 |  |  |
| CCCc1ccc(C(=O)NC(=S)Nc2ccc(NC(=O)CCCCN(C)C)cc2)cc1 [Compound 345c, 5-Dimethylamino-pentanoic acid {4-[3-(4-propyl-benzoyl)-thioureido]-phenyl}-amide hydrochloride] | 89 |  | 82.4 |  |  |  |
| Cc1ccc(C(=O)NC(=S)Nc2ccc(NC(=O)CCCCN(C)C)cc2)cc1 [318a A2, 5-Dimethylamino-pentanoic acid {4-[3-(4-methyl-benzoyl)-thioureido]-phenyl}-amide hydrochloride] | 40 |  | 47 |  |  |  |
| CN(C)CCCCC(=O)Nc1ccc(NC(=S)NC(=O)c2cccc(Cl)c2)cc1 [Compound A5, 5-Dimethylamino-pentanoic acid {4-[3-(3-chloro-benzoyl)-thioureido]-phenyl}-amide hydrochloride] | 57.9 |  | 29.2 |  |  |  |

More lines, now with the values ahead:

| inhibition at 60 µM ([1]; 60 μM compound) [%] | IC50 [1] [µM] | inhibition at 60 µM ([2]; 60 μM compound) [%] | IC50 [2] [µM] | SirT2 (% inhib at 60 μM) ([1]; 60 μM compound) [%] | SirT1 (% inhib at 60 μM) ([2]; 60 μM compound) [%] | SMILES |
| --- | --- | --- | --- | --- | --- | --- |
| 29.5 | > 90 | 58.3 | 51.7 ± 6.9 |  |  | COc1ccc(C(=O)NC(=S)Nc2ccc(NC(=O)CCCCN(C)C)cc2)cc1C(F)(F)F [Compound C6, 5-Dimethylamino-pentanoic acid {4-[3-(4-methoxy-3-trifluoromethyl-benzoyl)-thioureido]-phenyl}-amide hydrochloride] |
| 43.7 |  | 3.5 |  |  |  | CN(C)CCCCC(=O)Nc1ccc(NC(=S)NC(=O)c2ccccc2)cc1 [Compound B4, 5-Dimethylamino-pentanoic acid [4-(3-benzoyl-thioureido)-phenyl]-amide hydrochloride] |
| 47.7 | 39.5 ± 9.7 | 13.5 | 62.1 ± 2.3 |  |  | CN(C)CCCCC(=O)Nc1ccc(NC(=S)NC(=O)c2ccc(Br)cc2)cc1 [Compound B5, 5-Dimethylamino-pentanoic acid {4-[3-(4-bromo-benzoyl)-thioureido]-phenyl}-amide hydrochloride] |
| 65.1 |  | 27.5 |  |  |  | Cc1ccc(C(=O)NC(=S)Nc2ccc(NC(=O)CCCCN(C)C)cc2)cc1C [Compound C4, 5-Dimethylamino-pentanoic acid {4-[3-(3,4-dimethyl-benzoyl)-thioureido]-phenyl}-amide hydrochloride] |
| 46 | 52.5 ± 12.3 | 7.5 | > 90 |  |  | CN(C)CCCCC(=O)Nc1ccc(NC(=S)NC(=O)c2cc(F)c(F)c(F)c2)cc1 [Compound D1, 5-Dimethylamino-pentanoic acid {4-[3-(3,4,5-trifluoro-benzoyl)-thioureido]-phenyl}-amide hydrochloride] |
| 18 |  |  |  |  |  | COc1cc(C(=O)NC(=S)Nc2ccc(NC(=O)CCCCN(C)C)cc2)cc(OC)c1OC [Compound D2, 5-Dimethylamino-pentanoic acid {4-[3-(3,4,5-trimethoxy-benzoyl)-thioureido]-phenyl}-amide hydrochloride] |
| 77.1 | 34.3 ± 7.2 | 24 | 69.6 ± 0.6 |  |  | Cc1cc(C(=O)NC(=S)Nc2ccc(NC(=O)CCCCN(C)C)cc2)ccc1Br [Compound C5, 5-Dimethylamino-pentanoic acid {4-[3-(4-bromo-3-methyl-benzoyl)-thioureido]-phenyl}-amide hydrochloride] |
| 30.5 |  | 25.3 |  |  |  | COc1cccc(C(=O)NC(=S)Nc2ccc(NC(=O)CCCCN(C)C)cc2)c1 [Compound B2, 5-Dimethylamino-pentanoic acid {4-[3-(3-methoxy-benzoyl)-thioureido]-phenyl}-amide hydrochloride] |
|  |  |  |  | 17.1 | 10.9 | CN(C)CCCCC(=O)Nc1ccc(NC(=S)NC(=O)c2ccc(C(F)(F)F)cc2)cc1.Cl [Compound B6] |
